Laboratory results published in publication PMC11025159 (Journal of Translational Medicine, 2024).

Legend:
[1] = Pharmacokinetic study, dermal application; assay type: in vivo, C57BL/6 mice; conditions: male, C57BL/6, mouse, topical or ocular; topical dose 30 mg/kg, plasma
Method: The male C57BL/6 mice were used to study the pharmacokinetics of MJ04. MJ04 was dissolved in vehicle suspensions for dermal application (30 mg/kg). Blood samples were collected at different time points: 0 min, 30 min, 1 h, 2 h, 4 h, 8 h, 12 h, and 24 h after dermal application. Plasma samples were separated by centrifugation of whole blood and stored at less than − 70 °C until bioanalysis. The concentration of MJ04 in plasma was detected using LC–MS/MS (Agilent Technologies, 1260 Infinity system). The pharmacokinetic parameters were processed by DAS (version 3.2.8) software.

[2] = tested on: Murine macrophages (J774a.1); experiment: Cytokines from LPS primed macrophages (ELISA); assay type: cell-based; conditions: dose-dependent
Method: The supernatant was collected and stored at −20 ℃ for further cytokines analysis. The level of cytokines (TNF-α, IL1-β, and IL-6) was analyzed by sandwich ELISA as per the manufacturer protocol (BD Biosciences). In brief, capture antibodies were coated in the 96-well ELISA plate (Nunc) in respective coating buffer at 4 ℃ overnight. The plate was washed 4 times with washing buffer and blocked with the recommended blocking buffer for 1 h at room temperature. After incubation, plates were washed 4 times, added with sample and standard, and further incubated for another 2 h. Plates were then washed 4 times, added with detection antibody in combination of HRP for 1 h, and finally again washed 5 times. HRP substrate (TMB) was added and allowed to develop observable colour, and the reaction was stopped by adding 2 N H2SO4, and absorbance was recorded at 450 nm with 570 nm correction.

Mia PaCa-2 = experiment: MTT cell viability assay Mia PaCa-2; assay type: cell-based, human; conditions: Homo sapiens, MIA PaCa-2, 48 h
Method: (§1) Cell viability was evaluated using an MTT colorimetric assay. Cells were seeded (10^5 cells/mL) in 96-well plates and allowed to grow overnight at 37 ℃ with 5% CO2 in a cell-culture incubator. On the following day, the cells were treated with small molecules at different concentrations (0.2–10 micro-molar) or vehicle (DMSO). Cells were then further incubated for 48 h.

A549 = experiment: MTT cell viability assay A549; assay type: cell-based, human; conditions: Homo sapiens, A549, 48 h
Method: as §1

Structure (SMILES): Fc1ccc(-c2cnc3[nH]cc(-c4ccnc(NC5CC5)n4)c3c2)cc1 [MJ04]
- Cmax [1]: 480 nM
- Tmax [1]: 1 h
- level of proinflammatory cytokines TNF-α, IL1-β and IL-6 [2]: dampens the level of proinflammatory cytokines
- IC50 (Mia PaCa-2): 2.27 µM
- IC50 (A549): 3.79 µM
